Results reported in ChEMBL document CHEMBL4507290 (2021).

How the values were obtained:
[1] = target: Ribosomal protein S6 kinase alpha-5 (Homo sapiens) (UniProt O75582); conditions: Compound concentration 1000.0 nM
[2] = target: Serine/threonine-protein kinase 26 (Homo sapiens) (UniProt Q9P289); conditions: Compound concentration 1000.0 nM
[3] = target: Serine/threonine-protein kinase WNK2 (Homo sapiens) (UniProt Q9Y3S1); conditions: Compound concentration 1000.0 nM
[4] = target: Ribosomal protein S6 kinase alpha-2 (Homo sapiens) (UniProt Q15349); conditions: Compound concentration 1000.0 nM
Chain of Ribosomal protein S6 kinase alpha-2 (Homo sapiens) (Q15349 whole entry): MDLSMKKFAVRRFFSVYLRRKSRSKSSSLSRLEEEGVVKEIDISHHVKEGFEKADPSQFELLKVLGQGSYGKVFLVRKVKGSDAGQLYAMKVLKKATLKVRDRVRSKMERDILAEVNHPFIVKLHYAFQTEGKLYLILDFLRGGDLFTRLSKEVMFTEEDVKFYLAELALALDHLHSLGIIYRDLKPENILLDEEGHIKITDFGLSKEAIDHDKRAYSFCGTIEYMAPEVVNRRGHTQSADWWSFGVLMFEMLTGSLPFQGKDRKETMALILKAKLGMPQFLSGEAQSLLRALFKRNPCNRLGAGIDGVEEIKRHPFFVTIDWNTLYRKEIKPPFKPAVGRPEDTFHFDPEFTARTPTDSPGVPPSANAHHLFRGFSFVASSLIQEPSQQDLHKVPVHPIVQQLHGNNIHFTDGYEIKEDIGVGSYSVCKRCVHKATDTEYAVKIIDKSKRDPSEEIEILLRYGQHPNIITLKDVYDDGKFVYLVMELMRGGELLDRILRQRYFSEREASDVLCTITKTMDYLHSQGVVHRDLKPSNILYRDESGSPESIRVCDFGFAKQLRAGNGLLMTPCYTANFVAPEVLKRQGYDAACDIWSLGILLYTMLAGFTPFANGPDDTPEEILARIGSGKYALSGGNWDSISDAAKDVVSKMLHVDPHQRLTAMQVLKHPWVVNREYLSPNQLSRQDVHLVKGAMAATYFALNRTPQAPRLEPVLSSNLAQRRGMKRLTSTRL

[5] = system: Epidermal growth factor receptor (Homo sapiens), P00533 [UNDEFINED MUTATION]; conditions: Compound concentration 1000.0 nM
[6] = target: Serine/threonine-protein kinase N2 (Homo sapiens) (UniProt Q16513); conditions: Compound concentration 1000.0 nM
Chain of Serine/threonine-protein kinase N2 (Homo sapiens) (Q16513 whole entry, looked up): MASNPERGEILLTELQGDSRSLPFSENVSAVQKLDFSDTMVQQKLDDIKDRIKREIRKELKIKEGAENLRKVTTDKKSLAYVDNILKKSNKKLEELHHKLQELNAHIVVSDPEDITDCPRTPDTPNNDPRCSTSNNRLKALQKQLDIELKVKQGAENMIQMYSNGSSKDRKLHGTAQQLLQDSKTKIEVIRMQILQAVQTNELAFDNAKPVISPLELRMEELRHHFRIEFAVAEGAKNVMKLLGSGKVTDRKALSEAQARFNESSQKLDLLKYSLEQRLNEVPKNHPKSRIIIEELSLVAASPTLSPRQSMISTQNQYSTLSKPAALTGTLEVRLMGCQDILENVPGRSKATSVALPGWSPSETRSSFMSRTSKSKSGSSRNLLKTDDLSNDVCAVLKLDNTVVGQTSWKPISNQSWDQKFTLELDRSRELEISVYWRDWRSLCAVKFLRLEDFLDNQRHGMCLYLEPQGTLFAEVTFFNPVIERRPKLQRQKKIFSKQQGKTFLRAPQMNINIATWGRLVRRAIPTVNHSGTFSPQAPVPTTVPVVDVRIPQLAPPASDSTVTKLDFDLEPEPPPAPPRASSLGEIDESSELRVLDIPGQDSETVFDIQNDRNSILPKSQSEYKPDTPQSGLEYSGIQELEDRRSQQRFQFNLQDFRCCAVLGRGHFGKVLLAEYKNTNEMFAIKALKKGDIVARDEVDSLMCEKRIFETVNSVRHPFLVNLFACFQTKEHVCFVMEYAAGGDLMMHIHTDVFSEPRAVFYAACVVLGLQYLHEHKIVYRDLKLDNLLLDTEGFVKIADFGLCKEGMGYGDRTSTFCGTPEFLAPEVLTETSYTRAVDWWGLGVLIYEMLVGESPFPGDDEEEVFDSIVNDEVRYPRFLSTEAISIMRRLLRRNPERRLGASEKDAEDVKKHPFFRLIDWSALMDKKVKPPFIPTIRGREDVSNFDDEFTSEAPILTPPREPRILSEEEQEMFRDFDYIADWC

[7] = target: D(1B) dopamine receptor (Homo sapiens) (UniProt P21918); conditions: Compound concentration 10.0 uM
[8] = target: RAF proto-oncogene serine/threonine-protein kinase (Homo sapiens) (UniProt P04049); conditions: Compound concentration 1000.0 nM
[9] = system: Mast/stem cell growth factor receptor Kit (Homo sapiens), P10721 [V559D,V654A]; conditions: Compound concentration 1000.0 nM
[10] = target: MAP/microtubule affinity-regulating kinase 3 (Homo sapiens) (UniProt P27448); conditions: Compound concentration 1000.0 nM
[11] = target: Casein kinase I isoform alpha-like (Homo sapiens) (UniProt Q8N752); conditions: Compound concentration 1000.0 nM
[12] = target: NUAK family SNF1-like kinase 2 (Homo sapiens) (UniProt Q9H093); conditions: Compound concentration 1000.0 nM
[13] = target: Cyclin-dependent kinase 2 (Homo sapiens) (UniProt P24941); conditions: Compound concentration 1000.0 nM
[14] = target: Activated CDC42 kinase 1 (Homo sapiens) (UniProt Q07912); conditions: Compound concentration 1000.0 nM
[15] = target: 5-hydroxytryptamine receptor 2A (Homo sapiens) (UniProt P28223); conditions: Compound concentration 10.0 uM
[16] = target: Tyrosine-protein kinase Tec (Homo sapiens) (UniProt P42680); conditions: Compound concentration 1000.0 nM
[17] = target: Protein kinase C iota type (Homo sapiens) (UniProt P41743); conditions: Compound concentration 1000.0 nM
[18] = target: Serine/threonine-protein kinase tousled-like 1 (Homo sapiens) (UniProt Q9UKI8); conditions: Compound concentration 1000.0 nM
[19] = target: Myosin light chain kinase, smooth muscle (Homo sapiens) (UniProt Q15746); conditions: Compound concentration 1000.0 nM
[20] = target: Testis-specific serine/threonine-protein kinase 3 (Homo sapiens) (UniProt Q96PN8); conditions: Compound concentration 1000.0 nM
[21] = target: RAC-gamma serine/threonine-protein kinase (Homo sapiens) (UniProt Q9Y243); conditions: Compound concentration 1000.0 nM
[22] = target: Epithelial discoidin domain-containing receptor 1 (Homo sapiens) (UniProt Q08345); conditions: Compound concentration 1000.0 nM
[23] = target: GABA-A receptor; anion channel (Rattus norvegicus) (UniProt O09028+P15431+P18506+P18508+P19969+P20236+P23574+P23576+P28471+P28473+P30191+P62813+P63079+P63138+Q91ZM7+Q9ES14); conditions: Compound concentration 10.0 uM
[24] = target: Uncharacterized serine/threonine-protein kinase SBK3 (Homo sapiens) (UniProt P0C264); conditions: Compound concentration 1000.0 nM
Chain of Uncharacterized serine/threonine-protein kinase SBK3 (Homo sapiens) (P0C264 whole entry): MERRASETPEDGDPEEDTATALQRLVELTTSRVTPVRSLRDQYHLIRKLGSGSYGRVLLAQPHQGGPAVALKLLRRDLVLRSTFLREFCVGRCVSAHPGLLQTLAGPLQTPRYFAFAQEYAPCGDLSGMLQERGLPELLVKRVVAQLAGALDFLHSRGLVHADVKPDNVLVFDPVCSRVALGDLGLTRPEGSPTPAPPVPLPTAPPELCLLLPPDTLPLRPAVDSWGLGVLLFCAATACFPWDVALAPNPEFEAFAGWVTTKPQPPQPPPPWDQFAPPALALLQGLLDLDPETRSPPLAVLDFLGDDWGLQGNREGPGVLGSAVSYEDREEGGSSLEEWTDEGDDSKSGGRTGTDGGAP

[25] = target: Serine/threonine-protein kinase ULK3 (Homo sapiens) (UniProt Q6PHR2); conditions: Compound concentration 1000.0 nM
[26] = target: Casein kinase I isoform gamma-1 (Homo sapiens) (UniProt Q9HCP0); conditions: Compound concentration 1000.0 nM
[27] = target: Tyrosine-protein kinase Fgr (Homo sapiens) (UniProt P09769); conditions: Compound concentration 1000.0 nM
[28] = target: Fibroblast growth factor receptor 1 (Homo sapiens) (UniProt P11362); conditions: Compound concentration 1000.0 nM
[29] = target: Serine/threonine-protein kinase ULK2 (Homo sapiens) (UniProt Q8IYT8); conditions: Compound concentration 1000.0 nM
[30] = target: Serine/threonine-protein kinase WNK1 (Homo sapiens) (UniProt Q9H4A3); conditions: Compound concentration 1000.0 nM
[31] = target: Transient receptor potential cation channel subfamily M member 6 (Homo sapiens) (UniProt Q9BX84); conditions: Compound concentration 1000.0 nM
[32] = target: Serine/threonine-protein kinase TAO2 (Homo sapiens) (UniProt Q9UL54); conditions: Compound concentration 1000.0 nM
[33] = target: Serine/threonine-protein kinase Chk2 (Homo sapiens) (UniProt O96017); conditions: Compound concentration 1000.0 nM
[34] = target: Serine/threonine-protein kinase PAK 2 (Homo sapiens) (UniProt Q13177); conditions: Compound concentration 1000.0 nM
[35] = target: 3-phosphoinositide-dependent protein kinase 1 (Homo sapiens) (UniProt O15530); conditions: Compound concentration 1000.0 nM
[36] = target: Serine/threonine-protein kinase DCLK2 (Homo sapiens) (UniProt Q8N568); conditions: Compound concentration 1000.0 nM
Chain of Serine/threonine-protein kinase DCLK2 (Homo sapiens) (Q8N568 whole entry): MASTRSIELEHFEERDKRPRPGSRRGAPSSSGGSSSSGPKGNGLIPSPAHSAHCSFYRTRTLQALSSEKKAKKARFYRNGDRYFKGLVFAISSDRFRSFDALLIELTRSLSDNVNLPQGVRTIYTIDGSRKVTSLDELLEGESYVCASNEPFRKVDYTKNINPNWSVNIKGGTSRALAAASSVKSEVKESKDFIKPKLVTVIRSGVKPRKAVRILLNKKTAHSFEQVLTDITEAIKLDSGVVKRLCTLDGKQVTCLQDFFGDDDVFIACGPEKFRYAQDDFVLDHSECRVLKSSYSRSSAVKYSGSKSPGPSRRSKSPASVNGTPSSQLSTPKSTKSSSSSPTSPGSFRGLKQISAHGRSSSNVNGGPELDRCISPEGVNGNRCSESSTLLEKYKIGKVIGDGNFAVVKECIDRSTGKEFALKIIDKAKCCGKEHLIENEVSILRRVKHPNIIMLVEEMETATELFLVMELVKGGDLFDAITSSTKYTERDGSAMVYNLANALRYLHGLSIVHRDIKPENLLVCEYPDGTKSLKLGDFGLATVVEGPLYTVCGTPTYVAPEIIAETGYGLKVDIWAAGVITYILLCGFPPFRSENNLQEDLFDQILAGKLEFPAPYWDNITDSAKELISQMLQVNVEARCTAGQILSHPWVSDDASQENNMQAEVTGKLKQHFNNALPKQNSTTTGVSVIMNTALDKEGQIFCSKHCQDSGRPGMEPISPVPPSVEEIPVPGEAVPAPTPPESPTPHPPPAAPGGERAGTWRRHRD

[37] = target: Histamine H4 receptor (Homo sapiens) (UniProt Q9H3N8); conditions: Compound concentration 10.0 uM
Chain of Histamine H4 receptor (Homo sapiens) (Q9H3N8 whole entry): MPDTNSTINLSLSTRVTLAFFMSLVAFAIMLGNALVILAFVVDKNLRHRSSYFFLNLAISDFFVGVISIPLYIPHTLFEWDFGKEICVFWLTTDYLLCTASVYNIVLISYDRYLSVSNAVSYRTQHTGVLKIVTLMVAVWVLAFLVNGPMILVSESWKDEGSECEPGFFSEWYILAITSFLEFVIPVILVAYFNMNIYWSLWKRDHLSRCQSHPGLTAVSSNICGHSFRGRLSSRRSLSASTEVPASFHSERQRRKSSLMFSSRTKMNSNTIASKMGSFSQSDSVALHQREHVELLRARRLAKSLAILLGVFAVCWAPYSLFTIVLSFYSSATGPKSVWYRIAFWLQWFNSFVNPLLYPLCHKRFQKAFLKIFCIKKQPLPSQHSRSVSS

[38] = target: Serine/threonine-protein kinase SIK1 (Homo sapiens) (UniProt P57059); conditions: Compound concentration 1000.0 nM
[39] = target: Mitogen-activated protein kinase kinase kinase 14 (Homo sapiens) (UniProt Q99558); conditions: Compound concentration 1000.0 nM
[40] = system: Mast/stem cell growth factor receptor Kit (Homo sapiens), P10721 [D816V]; conditions: Compound concentration 1000.0 nM
[41] = system: Phosphatidylinositol 4,5-bisphosphate 3-kinase catalytic subunit alpha isoform (Homo sapiens), P42336 [I800L]; conditions: Compound concentration 1000.0 nM
Chain of Phosphatidylinositol 4,5-bisphosphate 3-kinase catalytic subunit alpha isoform (Homo sapiens), P42336 [I800L] (P42336 whole entry I800L, canonical isoform): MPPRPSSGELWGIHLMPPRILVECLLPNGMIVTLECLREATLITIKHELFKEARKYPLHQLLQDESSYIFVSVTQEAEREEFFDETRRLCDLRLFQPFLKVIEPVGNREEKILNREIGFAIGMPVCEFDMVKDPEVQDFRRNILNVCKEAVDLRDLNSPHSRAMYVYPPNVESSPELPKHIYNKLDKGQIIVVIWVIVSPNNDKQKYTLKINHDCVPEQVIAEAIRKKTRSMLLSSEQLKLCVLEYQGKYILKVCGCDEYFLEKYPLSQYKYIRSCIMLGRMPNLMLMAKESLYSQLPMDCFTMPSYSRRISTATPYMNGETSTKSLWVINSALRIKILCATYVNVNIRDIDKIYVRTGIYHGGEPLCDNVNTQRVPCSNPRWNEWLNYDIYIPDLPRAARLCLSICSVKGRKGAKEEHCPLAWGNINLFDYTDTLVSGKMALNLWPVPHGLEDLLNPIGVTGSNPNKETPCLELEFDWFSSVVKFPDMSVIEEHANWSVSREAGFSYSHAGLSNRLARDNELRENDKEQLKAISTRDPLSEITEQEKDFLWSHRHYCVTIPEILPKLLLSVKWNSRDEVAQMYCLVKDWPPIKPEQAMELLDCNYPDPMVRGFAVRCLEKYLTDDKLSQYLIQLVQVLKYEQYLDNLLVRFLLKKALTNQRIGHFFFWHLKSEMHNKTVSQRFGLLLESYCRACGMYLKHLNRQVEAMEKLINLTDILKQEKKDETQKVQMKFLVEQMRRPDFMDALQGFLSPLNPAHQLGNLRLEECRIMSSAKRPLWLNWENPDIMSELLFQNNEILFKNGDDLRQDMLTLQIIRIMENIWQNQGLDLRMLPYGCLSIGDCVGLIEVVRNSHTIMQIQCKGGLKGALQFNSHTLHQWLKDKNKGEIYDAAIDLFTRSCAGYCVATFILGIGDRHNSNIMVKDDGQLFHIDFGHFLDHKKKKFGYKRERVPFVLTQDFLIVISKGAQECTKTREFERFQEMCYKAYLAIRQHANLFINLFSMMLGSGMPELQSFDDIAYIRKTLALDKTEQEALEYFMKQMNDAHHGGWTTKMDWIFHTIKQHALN

[42] = target: Ribosomal protein S6 kinase alpha-2 (Homo sapiens) (UniProt Q15349); conditions: Compound concentration 1000.0 nM; remark: listed apart in the source
[43] = target: Serine/threonine-protein kinase TBK1 (Homo sapiens) (UniProt Q9UHD2); conditions: Compound concentration 1000.0 nM
Chain of Serine/threonine-protein kinase TBK1 (Homo sapiens) (Q9UHD2 whole entry): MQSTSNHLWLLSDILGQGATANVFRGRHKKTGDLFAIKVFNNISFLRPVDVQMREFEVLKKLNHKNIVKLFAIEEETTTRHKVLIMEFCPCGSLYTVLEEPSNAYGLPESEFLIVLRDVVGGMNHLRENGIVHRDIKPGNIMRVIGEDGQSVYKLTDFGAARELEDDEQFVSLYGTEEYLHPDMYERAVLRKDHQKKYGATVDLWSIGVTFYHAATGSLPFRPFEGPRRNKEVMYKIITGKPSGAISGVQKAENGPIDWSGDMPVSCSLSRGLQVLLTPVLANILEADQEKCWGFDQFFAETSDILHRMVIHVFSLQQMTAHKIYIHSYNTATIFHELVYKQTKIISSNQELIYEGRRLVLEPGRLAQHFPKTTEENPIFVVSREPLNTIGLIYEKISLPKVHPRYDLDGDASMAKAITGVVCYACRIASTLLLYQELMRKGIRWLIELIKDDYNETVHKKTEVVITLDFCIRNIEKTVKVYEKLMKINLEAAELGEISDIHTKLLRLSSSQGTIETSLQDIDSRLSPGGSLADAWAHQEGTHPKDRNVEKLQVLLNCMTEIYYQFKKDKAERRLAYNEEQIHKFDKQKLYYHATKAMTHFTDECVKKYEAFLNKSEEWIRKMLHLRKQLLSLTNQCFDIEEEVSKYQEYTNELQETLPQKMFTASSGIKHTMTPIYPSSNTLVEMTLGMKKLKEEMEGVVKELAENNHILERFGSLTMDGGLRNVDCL

Work on CN([C@@H]1CCc2c(CC(=O)O)c3cc(S(C)(=O)=O)ccc3n2C1)S(=O)(=O)c1ccc(F)cc1 yielded a residual activity [1] of 85%, a residual activity [2] of 77% and a residual activity [3] of 80%. The residual activity [4] was 99%, the residual activity [5] was 82% and the residual activity [6] was 100%. It also gave an inhibition [7] of -6.04%, a residual activity [8] of 100% and a residual activity [9] of 100%. It also gave a residual activity [10] of 100%, a residual activity [11] of 94% and a residual activity [12] of 87%. For the same compound, the residual activity [13] was 100%, the residual activity [14] was 92% and the inhibition [15] was 7.27%. It also gave a residual activity [16] of 100%, a residual activity [17] of 100% and a residual activity [18] of 100%. For the same compound, the residual activity [19] was 94%, the residual activity [20] was 100% and the residual activity [21] was 83%. The residual activity [22] was 100%, the inhibition [23] was 45% and the residual activity [24] was 49%. For the same compound, the residual activity [25] was 79%, the residual activity [26] was 91% and the residual activity [27] was 84%. For the same compound, the residual activity [28] was 100%, the residual activity [29] was 100% and the residual activity [30] was 95%. For the same compound, the residual activity [31] was 74%, the residual activity [32] was 100% and the residual activity [33] was 100%. The residual activity [34] was 100%, the residual activity [35] was 100% and the residual activity [36] was 100%. The inhibition [37] was 16%, the residual activity [38] was 87% and the residual activity [39] was 76%. For the same compound, the residual activity [40] was 95%, the residual activity [41] was 72% and the residual activity [42] was 100%. It also gave a residual activity [43] of 97%.
CN([C@@H]1CCc2c(CC(=O)O)c3ccccc3n2C1)S(=O)(=O)c1ccc(F)cc1 [MK-7246] showed a residual activity [1] of 95%, a residual activity [2] of 79% and a residual activity [3] of 92%. For the same compound, the residual activity [4] was 84%, the residual activity [5] was 100% and the residual activity [6] was 100%. The inhibition [7] was 1.94%, the residual activity [8] was 100% and the residual activity [9] was 100%. It also gave a residual activity [10] of 100%, a residual activity [11] of 100% and a residual activity [12] of 100%. For the same compound, the residual activity [13] was 100%, the residual activity [14] was 100% and the inhibition [15] was -6.57%. It also gave a residual activity [16] of 100%, a residual activity [17] of 100% and a residual activity [18] of 100%. The residual activity [19] was 100%, the residual activity [20] was 100% and the residual activity [21] was 100%. The residual activity [22] was 78%, the inhibition [23] was 27.7% and the residual activity [24] was 100%. The residual activity [25] was 80%, the residual activity [26] was 100% and the residual activity [27] was 93%. For the same compound, the residual activity [28] was 100%, the residual activity [29] was 100% and the residual activity [30] was 96%. It also gave a residual activity [31] of 85%, a residual activity [32] of 82% and a residual activity [33] of 100%. The residual activity [34] was 100%, the residual activity [35] was 100% and the residual activity [36] was 100%. For the same compound, the inhibition [37] was 25.9%, the residual activity [38] was 71% and the residual activity [39] was 100%. The residual activity [40] was 100%, the residual activity [41] was 79% and the residual activity [42] was 100%. The residual activity [43] was 100%.
